Measurements: PubChem BioAssay AID179 (DTP/NCI, 2004)
“And” between values parts separate entries of the source, which are not always exact repeats. Equal values may be shown once. The source made the active and inactive calls.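 Rule for the calls: active = compounds giving half or more protection of infected cells from virus-caused growth loss, again on retest; inactive = the rest.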

Test system: CEM cells HIV-1 protection, formazan growth assay
Assay: NCI AIDS Antiviral Assay
Details: for IC50: measured here: growth of uninfected CEM cells
Procedure, shortened: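 Protection of CEM cells against HIV-1 measured as cell growth via soluble formazan read-out, with five concentrations tested on both infected and uninfected cells; failure to protect may reflect toxicity.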

| Structure (SMILES) | EC50 [µM] | IC50 | outcome |
| --- | --- | --- | --- |
| O=C1CCSSCCC(=O)NCCCN1 | > 40.7 | > 40.7 µM |  |
| CCC1=C(OC)c2ncccc2C(=O)C1=O |  |  | inactive |
| C(=N/N=C(N/N=C/C1CNCCN1)N/N=C/C1CNCCN1)/C1CNCCN1 (stereo not given) | > 631 | > 631 µM |  |
| C[C@]12CC[C@H](OC(=O)Cc3ccc(N(CCCl)CCCl)cc3)CC1CC[C@@H]1C2CC[C@]2(C)NC(=O)CCC12 (stereo not given in full) | > 17.8 | 2.95 µM |  |
| Cc1nc2cc(N)c(F)cc2[nH]1 | > 537 | > 537 µM |  |
| O=C1CCC23CC(C=CC=C12)n1c(=O)n(-c2ccccc2)c(=O)n13 (stereo not given) | > 200 | 34.7 µM |  |
| COC1(C)C=NCC(C)(C)NC(=O)C(C)(OC)C=NCC(C)(C)NC1=O (stereo not given) | > 14.1 | > 14.1 µM |  |
| CCOC(=O)C(NC(=O)CC)(Nc1ccc(F)c(Cl)c1)C(F)(F)F (stereo not given) | > 200 | > 200 µM |  |
| C/C(O)=C(\C=NC(=S)c1ccncc1)C(=O)Nc1ccccc1C | > 200 | > 200 µM |  |
| Cc1nc(N)sc1C(=O)/C=C/c1ccc([N+](=O)[O-])cc1 | > 871 | 57.5 µM |  |
| NC1=NN(c2ccccc2)C(=O)C1C(=O)C(=O)Nc1ccccc1 (stereo not given) |  |  | inactive |
| CC1(O)CC2C(CC1SCc1ccccc1)C2(C)C (stereo not given) | > 200 | 34.7 µM and 20 µM |  |
| N#CN/C(N)=N/S(=O)(=O)c1ccc([N+](=O)[O-])cc1 | > 933 | 257 µM |  |
| COC(=O)[C@@H]1Cc2c3n(c4ccccc24)C(=O)CCC3N1C (stereo not given in full) | > 417 | 295 µM |  |
| CC1(c2ccccc2)CCN(C2CC2)CO1 (stereo not given) | > 200 | 23.4 µM |  |
| C=CC(C)C1(CCCOCc2ccccc2)C(=S)N2CCC3(CC24CCCC14)OCCO3 (stereo not given) |  |  | inactive |
| Cc1ccc(SS(=O)(=O)c2ccc(C)cc2)cc1 | > 38 | 6.61 µM |  |
| O=C1CC(CC(=O)C2CCCCC2=O)CC(=O)N1 (stereo not given) |  |  | inactive |
| O=C(Cn1c2ccc(Br)cc2c2nc3ccccc3nc21)NCc1ccccc1 | > 100 | > 100 µM |  |

| Structure (SMILES) | EC50 [µM] | IC50 | outcome |
| --- | --- | --- | --- |
| COc1cccc(C2C3=C(COC3=O)Oc3cc4c(cc32)OCO4)c1 (stereo not given) | > 2 | 0.0851 µM |  |
| CCN1CC2(COC)C(O)CC(OC)C34C5CC6(O)C(O)C5C(O)(C(O)C6OC)C(C(OC)C23)C14 (stereo not given) | > 200 | > 200 µM |  |
| Cc1c(OCc2cccc3ccccc23)ccc2c(=O)cc(S)oc12 | > 200 | 93.3 µM |  |
| CC1(C)CCc2cc3c(-c4ccccc4)cc(=O)oc3cc2O1 |  |  | inactive |
| O=C1c2c(ccc3c2CCCC3)CC12Cc1ccccc1C2 | > 200 | 22.4 µM |  |
| CN=C(N)c1ncn(C2OC(CO)C(O)C2O)n1 (stereo not given) |  |  | inactive |
| CCOP(=O)(OCC)C1CCCOC1=O (stereo not given) |  |  | inactive |
| CC(=O)OC1[C@@H]2[C@@H](COC(c3c(F)cccc3Cl)N2OC(C)=O)O[C@H]1n1ccc(=O)[nH]c1=O (stereo not given in full) | > 200 | 115 µM |  |
| CCc1cccc(C(C)C)c1NC(=O)/C(=N\NC(N)=O)C(C(=O)OC)c1cnc2ccccc2n1 (stereo not given) |  |  | inactive |
| COC(=O)C1=C2Nc3ccccc3C23CCN2CCC(=O)C[C@H](C1)[C@@H]23 (stereo not given in full) | > 107 | > 107 µM |  |
| O=C(CCc1ccccc1)ON1C(=S)C(c2ccccc2)(c2ccccc2)N=C1Sc1ccccc1 | > 200 | 25.7 µM |  |
| O=C1C(/C=N\C(=S)NCc2ccccc2)=C(O)c2ccccc21 | > 200 | 67.6 µM |  |
| COC(=O)CC(NC(=O)OCc1ccccc1)C(C(=O)OCc1ccccc1)C1(C)OCCO1 (stereo not given) | > 50.1 | 34.7 µM |  |
| CCCc1nn2c(-c3ccccc3)nnc2o1 | > 200 | 63.1 µM |  |
| CCCCCCCCCC(=O)Oc1c2ccoc2cc2oc(=O)ccc12 | > 63.1 | > 63.1 µM |  |
| [CH3][Hg]/[N]=C(/N)NC#N |  |  | inactive |
| COc1cc(C2c3cccc4cccc(c34)C3CCC(=O)N32)cc(O)c1O (stereo not given) | 3.02 | 9.33 µM |  |
| COc1cc(C(=O)C/C(CCC(=O)Nc2ccccc2[N+](=O)[O-])=N\NC(=O)CC#N)ccc1O | > 537 | 224 µM |  |
